For one assay, the system named is mature RGCs. The conditions noted are these: previously reported; cited from earlier work.
The test system of assay [1] is RGCs. Description: axon outgrowth in primary adult retinal cultures. In kind it is cell-based, rat. To be noted: for effect of inhibitor on oncomodulin-induced axon outgrowth: PD98059 5 μM, LY 294002 20 μM, Jaki 20 nM, KN92 10 μM, ActD 8 nM. As to the method: Protein A beads (Sigma) were incubated with either rabbit anti-OM antiserum (Swant) or normal rabbit serum (Invitrogen) for 16 h at 4° C. After extensive rinsing, beads with adsorbed IgGs were mixed with MCM (1 ml 10× concentrate, collected 8 h after zymosan treatment) for 24 h at 4° C. and then pelleted down by centrifugation. We tested 5 μl of the supernatants or untreated MCM for oncomodulin by western blotting. Bioactivity of immune-depleted and control MCM was tested in dissociated RGC cultures as described below at a 1:4 dilution, a concentration found to give a near-maximal response.
(§1) Adult rat retinal cultures were prepared as described^21. […] One week later, retinas were dissected, dissociated, and the cells plated in defined, serum-free medium. Axon growth (% RGCs extending axons ≧30 μm, ≧70 μm or ≧140 μm in length) was evaluated after 3 d in quadruplicate samples in a blinded fashion. All experiments were repeated at least three separate times. In some instances, cells were immunostained with GAP-43 antibody (1:500, Chemicon).

In the next assay the test system is DRG neurons. Description: neurite outgrowth of DRG neurons cultured after intraganglionic injection in vivo. In kind it is cell-based, rat. To be noted: CSPG substrate. As to the method:
L4-L5 DRGs from adult male Sprague-Dawley rats (250-300 g) were injected with 5 μl of saline or oncomodulin (200 ng μl^−1). After 7 d, injected ganglia were dissected and single-cell suspensions were prepared as described^50. Cells were cultured on laminin (Sigma) with or without CSPGs (Chemicon) for 20 h or 40 h. In some cases, chondroitinase ABC (0.5 U ml^−1, Seikagaku) was added. Neurite outgrowth was visualized by Tuj1 antibody to class III β-tubulin (1:5,000, Babco) and quantified in quadruplicate samples by a blinded observer. In other studies, L4-L5 DRG neurons were cultured in the presence of absence of oncomodulin, mannose and/or forskolin in RPMI-1640 to limit spontaneous outgrowth. Cells were fixed and immunostained after 3 d and evaluated for outgrowth.

Assay [2] concerns RGCs. Briefly: RGC survival in primary retinal cultures. The class given is cell-based, rat. As to the method: as §1

Entries after “also recorded” stand apart in the source; their conditions may differ. Numbered stars: 1 amine (or outer) side, 2 acyl side, 3 side chain; on linkers, the order of the positions; unused ones are H or OH. Bridge positions count the residues as written; N and C are the ends. Square brackets hold non-standard residues; d marks the D form. Peptide text beside a SMILES is read from it. I, II: the chains in the order shown. Actinocin(9to1) = Cc1c2oc3c(C)ccc(C(=O)[*:1])c3nc-2c(C(=O)[*:2])c(N)c1=O; NMeV = CN[C@H](C(=O)O)C(C)C; Sar = CNCC(=O)O

As to epidermal growth factor, in the assay with mature RGCs, the “axon extension of mature RGCs in culture” value is reported as “do not stimulate mature RGCs to extend axons”.
For `COc1ccc(S(=O)(=O)Nc2ccccc2CN(C)C/C=C/c2ccc(Cl)cc2)cc1` [KN92, reference compound], the “effect of inhibitor on oncomodulin-induced axon outgrowth” value with RGCs [1] (KN93 10 μM) was “did not substantially diminish outgrowth”.
Still for that read-out and setting: as for `CC(C)(C)c1nc2c3cc[nH]c(=O)c3c3cc(F)ccc3c2[nH]1` [Jaki, reference compound], the entry is “did not diminish oncomodulin's activity”.
Consider interleukin-6, for which the “axon extension of mature RGCs in culture” value in the assay with mature RGCs is reported as “do not stimulate mature RGCs to extend axons”.
In the case of calmodulin, in the assay with RGCs [1] (15 nM or tenfold higher concentration, forskolin and mannose present), the “axon outgrowth bioassay, Ca2+-binding proteins” value was “inactive”.
Consider fibroblast growth factor-2, for which the “axon extension of mature RGCs in culture” value with mature RGCs is “do not stimulate mature RGCs to extend axons”.
Consider chondroitinase ABC, for which, in the assay on DRG neurons, the “DRG neurite outgrowth on nonpermissive substrate” value is “promoted some outgrowth”.
On to nerve growth factor, for which, in the assay with mature RGCs, the “axon extension of mature RGCs in culture” value was “do not stimulate mature RGCs to extend axons”.
`CCCC(=O)Nc1ncnc2c1ncn2[C@@H]1O[C@@H]2COP(=O)(O)O[C@H]2[C@H]1OC(=O)CCC` [dibutyryl cAMP, reference compound]: the results for the “effect on oncomodulin-induced outgrowth” value in the assay with RGCs [1] ([dB-cAMP] above 250 μM) and in the assay with RGCs [1] ([dB-cAMP] up to 250 μM) were “further increases diminished outgrowth” and “enhanced the effect of oncomodulin”, respectively.
Regarding `COc1ccc(S(=O)(=O)N(CCO)c2ccccc2CN(C)C/C=C/c2ccc(Cl)cc2)cc1` [KN93, reference compound], the “effect of inhibitor on outgrowth induced by forskolin plus mannose” value in the assay on RGCs [1] (KN93 10 μM, three inhibitors combined) was “without altering the effect of mannose and forskolin”. Besides, in the assay on RGCs [1] (KN93 10 μM), the “effect of inhibitor on oncomodulin-induced axon outgrowth” value was “blocked the effect of oncomodulin fully”.
With `Cc1c2oc3c(C)ccc(C(=O)N[C@@H]4C(=O)N[C@H](C(C)C)C(=O)N5CCC[C@H]5C(=O)N(C)CC(=O)N(C)[C@@H](C(C)C)C(=O)O[C@@H]4C)c3nc-2c(C(=O)N[C@@H]2C(=O)N[C@H](C(C)C)C(=O)N3CCC[C@H]3C(=O)N(C)CC(=O)N(C)[C@@H](C(C)C)C(=O)O[C@@H]2C)c(N)c1=O` [actinomycin D, reference compound] (I: T[dV]P[Sar][NMeV] / II: T[dV]P[Sar][NMeV]; ester I:1-I:C, II:1-II:C; linker I:N-II:N via Actinocin(9to1)), in the assay on RGCs [2] (retinal culture), the RGC survival result was “without altering RGC survival”. Also, the “effect of inhibitor on oncomodulin-induced axon outgrowth” value in the assay on RGCs [1] (KN93 10 μM) was “blocked the effects of oncomodulin on outgrowth”.
Regarding `COc1cccc(-c2cc(=O)c3ccccc3o2)c1N` [PD98059, reference compound], the “effect of inhibitor on oncomodulin-induced axon outgrowth” value in the assay on RGCs [1] (KN93 10 μM) is listed as “not blocked; also recorded: enhanced outgrowth slightly”.
As to Lysozyme, the “diminished RGC survival” value in the assay with RGCs [2] (data not shown) is around 25%. Further, in the assay on RGCs [1] (data not shown), the “axon outgrowth from RGCs” value was “did not enhance outgrowth”.

The values above are taken from US20090156496A1, “METHODS AND COMPOSITIONS FOR TREATING AND PREVENTING PERIPHERAL NERVE DAMAGE” (CHILDREN'S MEDICAL CENTER CORPORATION, INC., priority 2006, published 2009).
